Reference: patent publication US8093249B2, “Pyrazolo[1,5-A]pyrimidine-carbonyl-piperazine derivatives” (Convergence Pharmaceuticals Limited, priority 2008, dated 2012)
pIC50: −log10 of the molar value. Where two headings read alike, the source gives them in different places.

Biological target: T1, hCaV2.2 (Homo sapiens, UniProt Q00975)
T1 construct: expressed in transfected cells; plasmids pCIN5-hCaV2.2, pCIH-hCaV β3, pCIP-α2δ1
Experiment: hCaV2.2 assay (IonWorks planar array electrophysiology, HEK293 stable cell line)
Type: cell-based
Conditions: inhibition of current elicited by the 1st depolarizing pulse by 50%, HEK293 cells expressing human CaV2.2 α/β3/α2δ1; for IC50: read-out: mean pIC50 value (tonic pIC50) (converted)
Description: Compounds of the invention may be tested for in vitro biological activity in the hCaV2.2 assay in accordance with the following studies:
Stable cell lines expressing the human CaV2.2 α (α1B) subunit, along with the human β3 and α2δ1 auxillary subunits were created following sequential transfection and selection of human embryonic kidney (HEK293) cells. […] Initially HEK293 cells were transfected with two plasmid vectors for expression of the hCaV2.2 α subunit (pCIN5-hCaV2.2 which carries a neomycin resistance marker) and the hCaV β3 subunit (pCIH-hCaV β3 which carries a hygromycin resistance marker). […] These clonal cell lines were assessed for Cav2.2 α/β3-mediated current expression using the IonWorks planar array electrophysiology technology (described below). […] Expression of all three subunits within this cell line was continuously maintained by the inclusion of G418 (0.4 mg ml^−1), hygromycin (0.1 mg ml^−1) and puromycin (0.62 μg ml^−1). Cells were maintained at 37° C. in a humidified environment containing 5% CO2 in air.
Cells were grown to 30-60% confluence in T175 flasks and maintained at 30° C. for 24 hours prior to recording. […] Lifted cells were suspended in 10 ml of extracellular buffer. Cell suspension was then placed into a 15 ml tube and centrifuged for 2 minutes at 700 rpm. After centrifugation, the supernatant was removed and the cell pellet was resuspended in 4.5 ml of extracellular solution.
Currents were recorded at room temperature (21-23° C.) using the IonWorks planar array electrophysiology technology (Molecular Devices Corp.). Stimulation protocols and data acquisition were carried out using a microcomputer (Dell Pentium 4). In order to determine planar electrode hole resistances (Rp), a 10 mV, 160 ms potential difference was applied across each hole. These measurements were performed before cell addition. After cell addition a seal test was performed prior to antibiotic (amphotericin) circulation to achieve intracellular access. Leak subtraction was conducted in all experiments by applying a 160 ms hyperpolarizing (10 mV) prepulse 200 ms before the test pulses to measure leak conductance. Test pulses stepping from the holding potential (VH) of −90 mV to +10 mV were applied for 20 ms and repeated 10 times at a frequency of 10 Hz. In all experiments, the test pulse protocol was performed in the absence (pre-read) and presence (post-read) of a compound. Pre- and post-reads were separated by a compound addition followed by a 3-3.5 min incubation.
The intracellular solution contained the following (in mM): K-gluconate 120, KCl 20 mM, MgCl2 5, EGTA 5, HEPES 10, adjusted to pH 7.3. Amphotericin was prepared as 30 mg/ml stock solution and diluted to a final working concentration of 0.2 mg ml^−1 in intracellular buffer solution. The extracellular solution contained the following (in mM): Na-gluconate 120, NaCl 20, MgCl2 1, HEPES 10, BaCl2 5, adjusted to pH 7.4.
Finally the compounds were diluted 1:100 in external solution resulting in a final DMSO concentration of 1%.
Paired comparisons between pre-compound and post-compound additions were used to determine the inhibitory effect of each compound. […] In addition the use-dependent inhibitory properties of the compounds were determined by assessing the effect of compounds on the 10th versus 1st depolarizing pulse. The ratio of the 10th over 1st pulse was determined in the absence and presence of drug and the % use-dependent inhibition calculated.
Compounds were tested in the form as described in the Examples. […] Variations in pUD30 and pIC50 values may arise between tests.

T1 sequence (Q00975 whole entry): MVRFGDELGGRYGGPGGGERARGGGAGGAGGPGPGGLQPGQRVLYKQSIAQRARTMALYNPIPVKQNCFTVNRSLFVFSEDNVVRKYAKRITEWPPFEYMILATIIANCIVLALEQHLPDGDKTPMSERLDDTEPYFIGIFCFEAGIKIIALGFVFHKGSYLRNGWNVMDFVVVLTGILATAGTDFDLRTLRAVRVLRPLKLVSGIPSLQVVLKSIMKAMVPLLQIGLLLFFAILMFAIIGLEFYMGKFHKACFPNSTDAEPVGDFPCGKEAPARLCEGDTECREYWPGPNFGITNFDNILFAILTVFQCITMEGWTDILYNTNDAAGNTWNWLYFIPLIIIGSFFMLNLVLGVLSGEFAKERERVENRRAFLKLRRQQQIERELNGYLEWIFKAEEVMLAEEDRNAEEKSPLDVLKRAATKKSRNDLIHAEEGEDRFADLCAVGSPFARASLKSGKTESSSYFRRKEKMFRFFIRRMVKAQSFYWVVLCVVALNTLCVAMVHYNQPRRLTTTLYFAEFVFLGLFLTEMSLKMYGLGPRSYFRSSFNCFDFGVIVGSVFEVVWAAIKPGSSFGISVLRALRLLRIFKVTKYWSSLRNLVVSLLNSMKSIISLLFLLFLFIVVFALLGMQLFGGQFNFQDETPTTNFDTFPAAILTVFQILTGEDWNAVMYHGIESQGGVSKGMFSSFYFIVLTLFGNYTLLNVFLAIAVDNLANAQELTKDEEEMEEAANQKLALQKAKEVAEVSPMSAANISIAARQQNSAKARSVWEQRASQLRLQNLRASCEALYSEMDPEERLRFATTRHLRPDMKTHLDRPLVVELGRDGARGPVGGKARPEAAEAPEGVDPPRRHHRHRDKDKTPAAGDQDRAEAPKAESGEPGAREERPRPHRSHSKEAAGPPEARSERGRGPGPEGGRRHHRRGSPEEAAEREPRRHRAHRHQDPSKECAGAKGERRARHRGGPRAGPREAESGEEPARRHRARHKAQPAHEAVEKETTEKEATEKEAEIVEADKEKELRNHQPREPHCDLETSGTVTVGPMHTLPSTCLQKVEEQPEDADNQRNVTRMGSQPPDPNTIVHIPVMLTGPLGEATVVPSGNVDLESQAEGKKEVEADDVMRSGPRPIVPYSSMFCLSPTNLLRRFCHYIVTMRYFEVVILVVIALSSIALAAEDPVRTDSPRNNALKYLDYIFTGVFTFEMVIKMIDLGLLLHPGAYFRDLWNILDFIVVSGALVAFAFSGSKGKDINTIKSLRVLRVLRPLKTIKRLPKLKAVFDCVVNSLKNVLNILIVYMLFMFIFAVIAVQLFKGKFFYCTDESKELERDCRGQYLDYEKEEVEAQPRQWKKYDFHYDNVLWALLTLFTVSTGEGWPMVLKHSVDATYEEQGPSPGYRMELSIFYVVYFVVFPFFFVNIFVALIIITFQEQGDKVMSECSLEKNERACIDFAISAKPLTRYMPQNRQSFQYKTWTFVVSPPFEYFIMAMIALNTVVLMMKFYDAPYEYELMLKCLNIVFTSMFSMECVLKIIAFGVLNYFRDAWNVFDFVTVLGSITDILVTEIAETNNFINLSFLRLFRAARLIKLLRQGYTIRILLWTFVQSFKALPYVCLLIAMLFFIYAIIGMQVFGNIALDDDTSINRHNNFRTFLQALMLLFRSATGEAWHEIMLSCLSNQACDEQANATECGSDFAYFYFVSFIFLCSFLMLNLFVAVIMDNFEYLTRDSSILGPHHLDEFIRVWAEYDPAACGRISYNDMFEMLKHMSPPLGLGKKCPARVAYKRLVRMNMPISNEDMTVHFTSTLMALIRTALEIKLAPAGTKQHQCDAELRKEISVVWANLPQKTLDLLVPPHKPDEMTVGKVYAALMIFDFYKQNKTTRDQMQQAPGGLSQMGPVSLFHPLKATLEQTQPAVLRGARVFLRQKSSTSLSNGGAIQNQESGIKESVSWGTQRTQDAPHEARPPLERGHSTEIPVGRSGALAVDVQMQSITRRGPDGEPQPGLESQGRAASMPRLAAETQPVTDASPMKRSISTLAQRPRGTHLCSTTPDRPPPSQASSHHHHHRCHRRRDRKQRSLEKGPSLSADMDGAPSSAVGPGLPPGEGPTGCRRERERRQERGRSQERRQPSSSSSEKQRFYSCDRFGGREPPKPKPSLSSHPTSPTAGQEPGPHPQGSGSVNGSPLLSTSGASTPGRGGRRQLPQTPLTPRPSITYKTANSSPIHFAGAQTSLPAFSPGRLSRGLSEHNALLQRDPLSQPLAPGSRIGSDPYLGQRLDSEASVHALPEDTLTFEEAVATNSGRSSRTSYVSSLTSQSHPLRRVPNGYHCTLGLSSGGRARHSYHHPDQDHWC
T1 sequence (P54284 whole entry partner): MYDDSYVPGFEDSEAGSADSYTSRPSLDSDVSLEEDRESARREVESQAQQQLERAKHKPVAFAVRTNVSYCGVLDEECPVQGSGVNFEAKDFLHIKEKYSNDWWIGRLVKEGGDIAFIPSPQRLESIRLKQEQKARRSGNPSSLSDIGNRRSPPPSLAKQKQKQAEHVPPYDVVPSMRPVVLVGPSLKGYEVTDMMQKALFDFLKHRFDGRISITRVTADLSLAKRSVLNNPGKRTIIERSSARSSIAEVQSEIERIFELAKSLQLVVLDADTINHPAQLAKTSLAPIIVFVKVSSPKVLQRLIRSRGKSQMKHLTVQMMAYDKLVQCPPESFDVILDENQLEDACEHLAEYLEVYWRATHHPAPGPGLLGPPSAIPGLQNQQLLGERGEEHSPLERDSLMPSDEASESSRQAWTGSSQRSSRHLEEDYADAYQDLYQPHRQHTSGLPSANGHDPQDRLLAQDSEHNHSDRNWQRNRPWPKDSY
T1 sequence (P54289 25-946 partner limits assumed): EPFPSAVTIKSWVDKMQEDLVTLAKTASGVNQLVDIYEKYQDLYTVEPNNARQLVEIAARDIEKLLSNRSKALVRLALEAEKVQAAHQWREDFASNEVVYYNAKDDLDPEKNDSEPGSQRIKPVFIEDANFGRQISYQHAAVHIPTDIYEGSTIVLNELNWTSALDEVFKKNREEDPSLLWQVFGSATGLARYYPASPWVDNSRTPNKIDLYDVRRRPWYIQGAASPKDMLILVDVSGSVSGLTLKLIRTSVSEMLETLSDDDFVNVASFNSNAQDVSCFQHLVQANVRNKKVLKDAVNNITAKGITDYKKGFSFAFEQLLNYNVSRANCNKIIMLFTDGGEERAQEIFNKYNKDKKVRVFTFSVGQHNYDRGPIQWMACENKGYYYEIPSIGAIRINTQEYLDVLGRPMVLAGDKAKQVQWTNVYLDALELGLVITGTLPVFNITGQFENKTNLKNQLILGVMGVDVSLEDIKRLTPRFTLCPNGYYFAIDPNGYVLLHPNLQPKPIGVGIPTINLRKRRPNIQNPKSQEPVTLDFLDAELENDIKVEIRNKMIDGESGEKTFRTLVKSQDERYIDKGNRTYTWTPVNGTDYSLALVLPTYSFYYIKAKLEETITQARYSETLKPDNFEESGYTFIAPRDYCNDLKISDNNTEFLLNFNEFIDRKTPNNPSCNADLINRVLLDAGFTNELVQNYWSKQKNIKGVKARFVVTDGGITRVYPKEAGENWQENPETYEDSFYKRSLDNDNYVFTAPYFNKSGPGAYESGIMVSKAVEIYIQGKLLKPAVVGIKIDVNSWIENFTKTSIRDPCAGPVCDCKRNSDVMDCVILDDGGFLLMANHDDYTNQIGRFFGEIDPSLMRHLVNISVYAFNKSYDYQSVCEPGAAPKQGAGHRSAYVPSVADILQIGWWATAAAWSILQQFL
T1 sequence (P54289 947-1103 partner limits assumed): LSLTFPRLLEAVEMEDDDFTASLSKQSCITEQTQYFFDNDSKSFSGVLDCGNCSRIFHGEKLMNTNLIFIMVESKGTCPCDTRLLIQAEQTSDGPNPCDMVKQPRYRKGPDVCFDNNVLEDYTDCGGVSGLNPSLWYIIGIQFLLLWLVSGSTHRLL

Structure (SMILES)	pIC50 (mean pIC50 value (tonic pIC50))	IC50
Cc1cc(C#N)ccc1S(=O)(=O)N1CCN(C(=O)c2cnn3cc(F)cnc23)[C@@H](C)C1 [Example 10, 4-({(3S)-4-[(6-fluoropyrazolo[1,5-a]pyrimidin-3-yl)carbonyl]-3-methyl-1-piperazinyl}sulfonyl)-3-methylbenzonitrile]	≤ 4.50	
C[C@@H]1CN(C(=O)c2cnn3cccnc23)CCN1S(=O)(=O)c1ccc(C(F)(F)F)cc1 [Example 3, 3-[((3R)-3-Methyl-4-{[4-(trifluoromethyl)phenyl]sulfonyl}-1-piperazinyl)carbonyl]pyrazolo[1,5-a]pyrimidine]		≥ 31.6 µM
C[C@H]1CN(C(=O)c2cnn3cccnc23)CCN1S(=O)(=O)c1ccc(OC(F)(F)F)cc1 [Example 15, 3-{[(3S)-3-methyl-4-({4-[(trifluoromethyl)oxy]phenyl}sulfonyl)-1-piperazinyl]carbonyl}pyrazolo[1,5-a] pyrimidine]		≥ 31.6 µM
C[C@@H]1CN(S(=O)(=O)c2ccc(OC(F)(F)F)cc2)CCN1C(=O)c1cnn2cccnc12 [Example 22, 3-{[(2R)-2-methyl-4-({4-[(trifluoromethyl)oxy]phenyl}sulfonyl)-1-piperazinyl]carbonyl}pyrazolo[1,5-a] pyrimidine]		≥ 31.6 µM
Cc1cnc2c(C(=O)N3CCN(S(=O)(=O)c4ccc(C#N)cc4C)C[C@@H]3C)cnn2c1 [Example 23, 3-methyl-4-({(3S)-3-methyl-4-[(6-methylpyrazolo[1,5-a]pyrimidin-3-yl)carbonyl]-1-piperazinyl}sulfonyl)benzonitrile]		≥ 31.6 µM
O=C(c1cnn2cccnc12)N1CCN(S(=O)(=O)c2ccc(C(F)(F)F)cc2)CC1 [Example 1, 3-[(4-{[4-(Trifluoromethyl)phenyl]sulfonyl}-1-piperazinyl)carbonyl]pyrazolo[1,5-a]pyrimidine]		≥ 31.6 µM
C[C@H]1CN(S(=O)(=O)c2ccc(C(F)(F)F)cc2)CCN1C(=O)c1cnn2cc(F)cnc12 [Example 9, 6-Fluoro-3-[((2S)-2-methyl-4-{[4-(trifluoromethyl)phenyl]sulfonyl}-1-piperazinyl)carbonyl]pyrazolo[1,5-a]pyrimidine]		≥ 10 µM
C[C@H]1CN(S(=O)(=O)c2ccc(C(F)(F)F)cc2)CCN1C(=O)c1cnn2cccnc12 [Example 2, 3-[((2S)-2-Methyl-4-{[4-(trifluoromethyl)phenyl]sulfonyl}-1-piperazinyl)carbonyl]pyrazolo[1,5-a]pyrimidine]		≥ 10 µM
Cc1cc(C)n2ncc(C(=O)N3CCN(S(=O)(=O)c4ccc(C(F)(F)F)cc4)CC3)c2n1 [Example 14, 5,7-dimethyl-3-[(4-{[4-(trifluoromethyl)phenyl]sulfonyl}-1-piperazinyl)carbonyl]pyrazolo[1,5-a] pyrimidine]		≥ 31.6 µM
C[C@H]1CN(C(=O)c2cnn3cccnc23)CCN1S(=O)(=O)c1ccc(C(F)(F)F)cc1 [Example 4, 3-[((3S)-3-Methyl-4-{[4-(trifluoromethyl)phenyl]sulfonyl}-1-piperazinyl)carbonyl]pyrazolo[1,5-a]pyrimidine]		≥ 31.6 µM
Cc1nn2cccnc2c1C(=O)N1CCN(S(=O)(=O)c2ccc(C(F)(F)F)cc2)C[C@@H]1C [Example 20, 2-methyl-3-[((2S)-2-methyl-4-{[4-(trifluoromethyl)phenyl]sulfonyl}-1-piperazinyl)carbonyl]pyrazolo[1,5-a] pyrimidine]		≥ 10 µM
Cc1ccc(C(F)(F)F)cc1S(=O)(=O)N1CCN(C(=O)c2cnn3cccnc23)CC1 [Example 19, 3-[(4-{[2-methyl-5-(trifluoromethyl)phenyl]sulfonyl}-1-piperazinyl)carbonyl]pyrazolo[1,5-a] pyrimidine]		≥ 31.6 µM
Cc1cc(C#N)ccc1S(=O)(=O)N1CCN(C(=O)c2cnn3cccnc23)[C@@H](C)C1 [Example 5, 3-Methyl-4-{[(3S)-3-methyl-4-(pyrazolo[1,5-a]pyrimidin-3-ylcarbonyl)-1-piperazinyl]sulfonyl}benzonitrile]		≥ 31.6 µM
C[C@@H]1CN(S(=O)(=O)c2ccc(C(F)(F)F)cc2)CCN1C(=O)c1cnn2cccnc12 [Example 7, 3-[((2R)-2-Methyl-4-{[4-(trifluoromethyl)phenyl]sulfonyl}-1-piperazinyl)carbonyl]pyrazolo[1,5-a]pyrimidine]		≥ 31.6 µM
Cc1cc(C#N)ccc1S(=O)(=O)N1CCN(C(=O)c2c(C)nn3cccnc23)[C@@H](C)C1 [Example 24, 3-methyl-4-({(3S)-3-methyl-4-[(2-methylpyrazolo[1,5-a]pyrimidin-3-yl)carbonyl]-1-piperazinyl}sulfonyl)benzonitrile]		≥ 31.6 µM
Cc1cc(C#N)ccc1S(=O)(=O)N1CCN(C(=O)c2cnn3cc(Cl)cnc23)[C@@H](C)C1 [Example 16, 4-({(3S)-4-[(6-chloropyrazolo[1,5-a]pyrimidin-3-yl)carbonyl]-3-methyl-1-piperazinyl}sulfonyl)-3-methylbenzonitrile]		≥ 10 µM
C[C@H]1CN(S(=O)(=O)c2ccc(OC(F)(F)F)cc2)CCN1C(=O)c1cnn2cccnc12 [Example 11, 3-{[(2S)-2-methyl-4-({4-[(trifluoromethyl)oxy]phenyl}sulfonyl)-1-piperazinyl]carbonyl}pyrazolo[1,5-a]pyrimidine]		≥ 31.6 µM
O=C(c1cnn2cccnc12)N1CCN(S(=O)(=O)c2ccc(OC(F)(F)F)cc2)CC1 [Example 8, 3-{[4-({4-[(trifluoromethyl)oxy]phenyl}sulfonyl)-1-piperazinyl]carbonyl}pyrazolo[1,5-a]pyrimidine]		≥ 31.6 µM
Cc1cnc2c(C(=O)N3CCN(S(=O)(=O)c4ccc(C(F)(F)F)cc4)CC3)cnn2c1 [Example 6, 6-Methyl-3-[(4-{[4-(trifluoromethyl)phenyl]sulfonyl}-1-piperazinyl)carbonyl]pyrazolo[1,5-a]pyrimidine]		≥ 31.6 µM
Cc1ccc(C(F)(F)F)cc1S(=O)(=O)N1CCN(C(=O)c2cnn3cccnc23)[C@@H](C)C1 [Example 18, 3-[((2S)-2-methyl-4-{[2-methyl-5-(trifluoromethyl)phenyl]sulfonyl}-1-piperazinyl)carbonyl]pyrazolo[1,5-a] pyrimidine]		≥ 31.6 µM
C[C@@H]1CN(C(=O)c2cnn3cccnc23)CCN1S(=O)(=O)c1ccc(OC(F)(F)F)cc1 [Example 21, 3-{[(3R)-3-methyl-4-({4-[(trifluoromethyl)oxy]phenyl}sulfonyl)-1-piperazinyl]carbonyl}pyrazolo[1,5-a] pyrimidine]		≥ 31.6 µM
